{"source": "patent US6974800B1", "about": "“Formulations comprising an inhibitor of carboxypeptidase U and A thrombin inhibitor” (AstraZeneca AB, priority 1999, dated 2005)", "system": "lung fibrin deposition", "assay": "Lung fibrin deposition in the anaesthetized rat (endotoxin + batroxobin, 125I-fibrinogen)", "assay_type": "in vivo, rat (Sprague Dawley)", "description": "Batroxobin No. 520 CRY (American Diagnostica Inc., Greenwich, Conn., USA) was kept at 8° C. both while lyophilized and when dissolved in saline to a concentration of 10 BU/ml. It was used within 5 days in the experiments. The remaining drug was freezed and kept at […] for a maximum of 30 days.\nEndotoxin L-3129 (Sigma, St. Louis, Mo., USA) was dissolved in saline to a concentration of 50 μg/ml. A fresh solution was prepared for each experiment.\n^125I-labelled human fibrinogen (Amersham, Little Chalfont, Buck., UK) was stored at 8° C. while lyophilized. After dissolving in saline/aq.dest. (80/20 v/v) to a stock solution of approx. 0.8 MBq/ml (20 μCi/ml) it was divided into aliquots (one for each experiment), quickly freezed and stored at −20° C. It was used in the experiments within 14 days after the production date.\nThe thrombin inhibitor inogatran was dissolved in 40% (w/w) cyclodextrin (HPβCD) to a concentration of 5 mg/ml and stored at −20° C. It was further diluted with 40% cyclo-dextrin before use in the different experiments. In the studies the drug was administered subcutaneously.\nThe thrombin inhibitor melagatran was dissolved in saline.\nThe CPU inhibitors […] and Compound A were dissolved in deoxygenated saline. The saline was deoxygenated by ultrasonication for 20 min and subsequently by passing nitrogen for another 20 min. The solutions were always fresh-made for each experiment. The CPU inhibitor was administered to the rats as an i.v. infusion for 5 min.\nMale rats of the Sprague Dawley strain (Charles River, Sweden) with a body weight of 325–425 g were used in these experiments. The animals were allowed to accommodate at AstraZeneca R&D, Mölndal, Sweden for 1 week before use.\nAnaesthesia was induced and maintained by Inactin 100 mg/kg i.p.\nTwo catheters were inserted in the left jugular vein, one for administration of ^125I-fibrinogen and batroxobin and the other for administration of endotoxin and CPU inhibitor or their corresponding vehicles. A third catheter was inserted in the carotid artery for blood sampling and measurement of the mean arterial blood pressure and heart rate. To avoid blood clots in the arterial catheter a slow saline infusion (approx. 1.0 ml/kg*h) was maintained throughout the experiment. The rats were tracheotomized in order to facilitate spontaneous breathing. The body temperature was monitored and maintained at 38° C. by external heating.\nThe animals were given an i.v. injection of endotoxin (50 μg/kg) at the start of the experiment. Two hours later the thrombin inhibitor or its vehicle was injected subcutaneously and another 15 min later ^125I-fibrinogen (0.04 MBq) was given as an i.v. injection. An infusion lasting for five minutes of the CPU-inhibitor or its vehicle was started after 5 min. After 5 min, batroxobin (10 BU/kg) was given as an i.v. bolus injection for one minute.\nBlood samples for determination of ^125I-content were taken in all experiments just before and 5, 20 and 30 min after the batroxobin administration. At the end of the experiment the lungs were excised, the tissue was gently washed in saline and thereafter blotted and weighed. The ^125I-content in the tissue and blood samples was determined, using a Wallac 1282 Compugamma counter. The ^125I-concentration in plasma and in the lungs was expressed as a percentage of the radioactivity in the reference arterial blood sample taken just prior to the batroxobin injection.\nFor each of the four different dose combinations, only CPU inhibitor, only thrombin inhibitor, thrombin inhibitor together with CPU inhibitor at 0.2 and 0.28 μmol/kg respectively, separate E-max models were fitted. The models were fitted on a logarithmic scale giving estimates of the median effective dose, i.e., the dose where half of the population has 50% effect.", "data": [{"molecule": "N=C(N)NCCSCC(CS)C(=O)O", "note": "(racemic) [MERGETPA, DL-2-mercaptomethyl-3-guanidinoethylthiopropanoic acid]", "values": [{"measurement": "Remaining fibrin after treatment", "setting": "Table I, CPU inhibitor alone, 8.4 μmol/kg i.v. infusion, 100% = no effect", "value": "90 ± 18.1", "unit": "%"}, {"measurement": "Remaining fibrin after treatment", "setting": "Table I, CPU inhibitor alone, 21.1 μmol/kg i.v. infusion", "value": "37 ± 19.3", "unit": "%"}, {"measurement": "Remaining fibrin after treatment", "setting": "Table I, CPU inhibitor alone, 33.7 μmol/kg i.v. infusion", "value": "23 ± 17.3", "unit": "%"}]}, {"molecule": "Nc1ccc(CC(CS)C(=O)O)cn1", "note": "(stereo not drawn) [compound A, 3-(6-amino-pyridin-3-yl)-2-mercaptomethyl-propanoic acid]", "values": [{"measurement": "Remaining fibrin after treatment", "setting": "Table II, CPU inhibitor alone, 0.20 μmol/kg i.v. infusion", "value": "100 ± 25.8", "unit": "%"}, {"measurement": "Remaining fibrin after treatment", "setting": "Table II, CPU inhibitor alone, 0.28 μmol/kg", "value": "88 ± 23.2", "unit": "%"}, {"measurement": "Remaining fibrin after treatment", "setting": "Table II, CPU inhibitor alone, 0.4 μmol/kg", "value": "87 ± 50.6", "unit": "n = 6%"}, {"measurement": "Remaining fibrin after treatment", "setting": "Table II, CPU inhibitor alone, 2.0 μmol/kg", "value": "49 ± 30.0", "unit": "n = 7%"}, {"measurement": "Remaining fibrin after treatment", "setting": "Table II, CPU inhibitor alone, 4.0 μmol/kg", "value": "15 ± 9.3", "unit": "n = 4%"}, {"measurement": "Remaining fibrin after treatment", "setting": "Table II, CPU inhibitor alone, 20.0 μmol/kg", "value": "7 ± 1.4", "unit": "n = 2%"}, {"measurement": "Remaining fibrin after treatment", "setting": "Table III, CPU inhibitor alone, 0.20 μmol/kg", "value": "97 ± 24.1", "unit": "%"}, {"measurement": "Remaining fibrin after treatment", "setting": "Table III, CPU inhibitor alone, 0.28 μmol/kg", "value": "81 ± 24.5", "unit": "%"}]}, {"molecule": "N=C(N)NCCCNC(=O)[C@@H]1CCCCN1C(=O)[C@@H](CC1CCCCC1)NCC(=O)O", "note": "[inogatran, HOOC—CH2—(R)Cha-Pic-Nag-H]", "values": [{"measurement": "Remaining fibrin after treatment", "setting": "Table I, thrombin inhibitor alone, 2.3 μmol/kg s.c.", "value": "94 ± 20.2", "unit": "n = 6%"}, {"measurement": "Remaining fibrin after treatment", "setting": "Table I, thrombin inhibitor alone, 3.4 μmol/kg s.c.", "value": "72 ± 23.6", "unit": "n = 6%"}, {"measurement": "Remaining fibrin after treatment", "setting": "Table I, thrombin inhibitor alone, 5.7 μmol/kg s.c.", "value": "41 ± 20.3", "unit": "n = 6%"}, {"measurement": "Remaining fibrin after treatment", "setting": "Table I, thrombin inhibitor alone, 17.2 μmol/kg s.c.", "value": "39 ± 15.9", "unit": "n = 6%"}]}, {"molecule": "N=C(N)c1ccc(CNC(=O)[C@@H]2CCN2C(=O)[C@H](NCC(=O)O)C2CCCCC2)cc1", "note": "[melagatran, HOOC—CH2—(R)Cgl-Aze-Pab-H]", "values": [{"measurement": "Remaining fibrin after treatment", "setting": "Table II, thrombin inhibitor alone, 0.23 μmol/kg s.c.", "value": "97 ± 12.4", "unit": "n = 6%"}, {"measurement": "Remaining fibrin after treatment", "setting": "Table II, thrombin inhibitor alone, 0.35 μmol/kg", "value": "77 ± 22.4", "unit": "n = 4%"}, {"measurement": "Remaining fibrin after treatment", "setting": "Table II, thrombin inhibitor alone, 0.58 μmol/kg", "value": "62 ± 17.0", "unit": "n = 2%"}, {"measurement": "Remaining fibrin after treatment", "setting": "Table II, thrombin inhibitor alone, 1.75 μmol/kg", "value": "31 ± 13.3", "unit": "n = 4%"}, {"measurement": "Remaining fibrin after treatment", "setting": "Table II, thrombin inhibitor alone, 3.5 μmol/kg", "value": "55 ± 21.7", "unit": "n = 4%"}, {"measurement": "Remaining fibrin after treatment", "setting": "Table III, thrombin inhibitor alone, 0.18 μmol/kg", "value": "110 ± 15.2", "unit": "n = 3%"}, {"measurement": "Remaining fibrin after treatment", "setting": "Table III, thrombin inhibitor alone, 0.23 μmol/kg", "value": "98 ± 11.5", "unit": "n = 7%"}, {"measurement": "Remaining fibrin after treatment", "setting": "Table III, thrombin inhibitor alone, 0.30 μmol/kg", "value": "87 ± 27.6", "unit": "n = 3%"}, {"measurement": "Remaining fibrin after treatment", "setting": "Table III, thrombin inhibitor alone, 0.35 μmol/kg", "value": "77 ± 22.4", "unit": "n = 4%"}]}]}
